In patent US20230117324A1, “OXAZINE MONOACYLGLYCEROL LIPASE (MAGL) INHIBITORS” (Hoffmann-La Roche Inc., priority 2018, published 2023):

biological target: T1, MAGL (Homo sapiens, UniProt Q99685); experiment: MAGL inhibition, 2-AG assay (hydrolysis of 2-arachidonoylglycerol, arachidonic acid by mass spectrometry); assay type: biochemical; details: 2-AG assay (footnote [b])
T1 sequence (Q99685 1-303): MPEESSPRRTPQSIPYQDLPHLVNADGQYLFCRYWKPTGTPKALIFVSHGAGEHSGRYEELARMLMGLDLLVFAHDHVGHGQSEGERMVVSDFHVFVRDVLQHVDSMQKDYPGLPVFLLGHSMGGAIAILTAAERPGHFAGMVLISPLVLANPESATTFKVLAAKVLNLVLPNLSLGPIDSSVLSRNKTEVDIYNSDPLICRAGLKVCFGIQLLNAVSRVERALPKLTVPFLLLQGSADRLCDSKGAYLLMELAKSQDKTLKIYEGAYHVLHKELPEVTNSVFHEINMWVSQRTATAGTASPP
Outline: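 Human MAGL […] was preincubated 15 min at RT with compound ([…], 3-fold steps) in 50 mM Tris, 1 mM EDTA, 0.01% Tween. 2-AG (8 μM) was then added for 30 min at RT. Arachidonic acid was quantified by RapidFire SPE–triple quadrupole MS in negative ESI as its ratio to a d8-arachidonic acid standard.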

SMILES | IC50 [nM]
CS(=O)(=O)c1cccc(C(c2ccncc2)C2CCN(C(=O)N3CC[C@@H]4OCC(=O)N[C@@H]4C3)CC2)c1 (single isomer, unassigned) [Example 177, (4aR,8aS)-6-[4-[(R or S)-(3-methylsulfonylphenyl)-(4-pyridyl)methyl]piperidine-1-carbonyl]-4,4a,5,7,8,8a-hexahydropyrido[4,3-b][1,4]oxazin-3-one] | 428
CS(=O)(=O)c1cccc(C(c2ccncc2)C2CCN(C(=O)N3CC[C@@H]4OCC(=O)N[C@@H]4C3)CC2)c1 (single isomer, unassigned) [Example 178, (4aR,8aS)-6-[4-[(S or R)-(3-methylsulfonylphenyl)-(4-pyridyl)methyl]piperidine-1-carbonyl]-4,4a,5,7,8,8a-hexahydropyrido[4,3-b][1,4]oxazin-3-one] | 131
CS(=O)(=O)c1cccc(C(c2ccccn2)C2CCN(C(=O)N3CC[C@@H]4OCC(=O)N[C@@H]4C3)CC2)c1 (single isomer, unassigned) [Example 189, (4aR,8aS)-6-[4-[(R or S)-(3-methylsulfonylphenyl)-(2-pyridyl)methyl]piperidine-1-carbonyl]-4,4a,5,7,8,8a-hexahydropyrido[4,3-b][1,4]oxazin-3-one] | 68
CS(=O)(=O)c1cccc(C(c2ccccn2)C2CCN(C(=O)N3CC[C@@H]4OCC(=O)N[C@@H]4C3)CC2)c1 (single isomer, unassigned) [Example 190, (4aR,8aS)-6-[4-[(S or R)-(3-methylsulfonylphenyl)-(2-pyridyl)methyl]piperidine-1-carbonyl]-4,4a,5,7,8,8a-hexahydropyrido[4,3-b][1,4]oxazin-3-one] | 261
O=C1CO[C@H]2CCN(C(=O)N3CC(c4ccc(N5CCCC5C(F)(F)F)cc4)C3)C[C@H]2N1 (single isomer, unassigned) [Example 194] | 0.1
O=C1CO[C@H]2CCN(C(=O)N3CC(c4ccc(N5CCCC5C(F)(F)F)cc4)C3)C[C@H]2N1 (single isomer, unassigned) [Example 195] | 0.4
O=C1CO[C@H]2CCN(C(=O)N3CC(c4ccc(N5CCC(C(F)(F)F)C5)cc4)C3)C[C@H]2N1 (single isomer, unassigned) [Example 197, (4aR,8aS)-6-(3-(4-((R or S)-3-(Trifluoromethyl)pyrrolidin-1-yl)phenyl)azetidine-1-carbonyl)hexahydro-2H-pyrido[4,3-b][1,4]oxazin-3(4H)-one] | 0.5
O=C1CO[C@H]2CCN(C(=O)N3CC(c4ccc(N5CCC(C(F)(F)F)C5)cc4)C3)C[C@H]2N1 (single isomer, unassigned) [Example 198, (4aR,8aS)-6-(3-(4-((S or R)-3-(Trifluoromethyl)pyrrolidin-1-yl)phenyl)azetidine-1-carbonyl)hexahydro-2H-pyrido[4,3-b][1,4]oxazin-3(4H)-one] | 1
O=C1CO[C@H]2CCN(C(=O)N3CCC(c4cccc(OC(F)(F)F)c4)C3)C[C@H]2N1 (single isomer, unassigned) [Example 221, (4aR,8aS)-6-[3-(S or R)-[3-(Trifluoromethoxy)phenyl]pyrrolidine-1-carbonyl]-4,4a,5,7,8,8a-hexahydropyrido[4,3-b][1,4]oxazin-3-one] | 178
O=C1CO[C@H]2CCN(C(=O)N3CCC(c4cccc(OC(F)(F)F)c4)C3)C[C@H]2N1 (single isomer, unassigned) [Example 222, (4aR,8aS)-6-[3-(R or S)-[3-(Trifluoromethoxy)phenyl]pyrrolidine-1-carbonyl]-4,4a,5,7,8,8a-hexahydropyrido[4,3-b][1,4]oxazin-3-one] | 114
O=C1CO[C@H]2CCN(C(=O)N3CCC(c4cccc(Br)c4)C3)C[C@H]2N1 (single isomer, unassigned) [Example 228, (4aR,8aS)-6-[(3S or R)-3-(3-Bromophenyl)pyrrolidine-1-carbonyl]-4,4a,5,7,8,8a-hexahydropyrido[4,3-b][1,4]oxazin-3-one] | 162
O=C1CO[C@H]2CCN(C(=O)N3CCC(c4cccc(Br)c4)C3)C[C@H]2N1 (single isomer, unassigned) [Example 229, (4aR,8aS)-6-[(3R or S)-3-(3-Bromophenyl)pyrrolidine-1-carbonyl]-4,4a,5,7,8,8a-hexahydropyrido[4,3-b][1,4]oxazin-3-one] | 229
O=C1CO[C@H]2CCN(C(=O)N3CCC(c4cc(Cl)cc(OCC(F)(F)F)c4)C3)C[C@H]2N1 (single isomer, unassigned) [Example 238, (4aR,8aS)-6-((R or S)-3-(3-Chloro-5-(2,2,2-trifluoroethoxy)phenyl)pyrrolidine-1-carbonyl)hexahydro-2H-pyrido[4,3-b][1,4]oxazin-3(4H)-one] | 156
O=C1CO[C@H]2CCN(C(=O)N3CCC(c4cc(Cl)cc(OCC(F)(F)F)c4)C3)C[C@H]2N1 (single isomer, unassigned) [Example 239, (4aR,8aS)-6-((S or R)-3-(3-Chloro-5-(2,2,2-trifluoroethoxy)phenyl)pyrrolidine-1-carbonyl)hexahydro-2H-pyrido[4,3-b][1,4]oxazin-3(4H)-one] | 39
CC(Oc1ccc(C2CN(C(=O)N3CC[C@@H]4OCC(=O)N[C@@H]4C3)C2)cc1)C(F)(F)F (single isomer, unassigned) [Example 246, (4aR,8aS)-6-[3-(R or S)-[4-(2,2,2-Trifluoro-1-methyl-ethoxy)phenyl]azetidine-1-carbonyl]-4,4a,5,7,8,8a-hexahydropyrido[4,3-b][1,4]oxazin-3-one] | 1
CC(Oc1ccc(C2CN(C(=O)N3CC[C@@H]4OCC(=O)N[C@@H]4C3)C2)cc1)C(F)(F)F (single isomer, unassigned) [Example 248, (4aR,8aS)-6-[3-(S or R)-[4-(2,2,2-Trifluoro-1-methyl-ethoxy)phenyl]azetidine-1-carbonyl]-4,4a,5,7,8,8a-hexahydropyrido[4,3-b][1,4]oxazin-3-one] | 1
O=C1CO[C@H]2CCN(C(=O)N3CC(c4ccc(N5CCC(C(F)(F)F)C5)cn4)C3)C[C@H]2N1 (single isomer, unassigned) [Example 271, (4aR,8aS)-6-(3-(5-((R or S)-3-(Trifluoromethyl)pyrrolidin-1-yl)pyridin-2-yl)azetidine-1-carbonyl)hexahydro-2H-pyrido[4,3-b][1,4]oxazin-3(4H)-one] | 22
O=C1CO[C@H]2CCN(C(=O)N3CC(c4ccc(N5CCC(C(F)(F)F)C5)cn4)C3)C[C@H]2N1 (single isomer, unassigned) [Example 272, (4aR,8aS)-6-(3-(5-((S or R)-3-(Trifluoromethyl)pyrrolidin-1-yl)pyridin-2-yl)azetidine-1-carbonyl)hexahydro-2H-pyrido[4,3-b][1,4]oxazin-3(4H)-one] | 17
O=C1CO[C@H]2CCN(C(=O)N3CC(c4ccc(N5CCC(C(F)(F)F)C5)nc4)C3)C[C@H]2N1 (single isomer, unassigned) [Example 274, (4aR,8aS)-6-[3-[6-[3-(R or S)-(Trifluoromethyl)pyrrolidin-1-yl]-3-pyridyl]azetidine-1-carbonyl]-4,4a,5,7,8,8a-hexahydropyrido[4,3-b][1,4]oxazin-3-one] | 2
CC(C)(C)[Si](C)(C)OCCn1cc(C2CCN(C(=O)N3CC[C@@H]4OCC(=O)NC4C3)CC2)c2cc(Cl)ccc21 (stereo in doubt) [Example 268, (4aS,8aS)-6-[4-[1-[2-[tert-Butyl(dimethyl)silyl]oxyethyl]-5-chloro-indol-3-yl]piperidine-1-carbonyl]-4,4a,5,7,8,8a-hexahydropyrido[4,3-b][1,4]oxazin-3-one] | 670
N#CC(c1ccc(F)cc1)C1CCN(C(=O)N2CC[C@@H]3OCC(=O)N[C@@H]3C2)CC1 (stereo partly drawn) [Example 48, 2-(4-Fluorophenyl)-2-(1-((4aR,8aS)-3-oxooctahydro-2H-pyrido[4,3-b][1,4]oxazine-6-carbonyl)piperidin-4-yl)acetonitrile] | 361
O=C1CO[C@H]2CCN(C(=O)N3CCN(C(c4ccccc4)C(F)(F)F)CC3)C[C@H]2N1 (stereo partly drawn) [Example 49, (4aR,8aS)-6-(4-(2,2,2-Trifluoro-1-phenylethyl)piperazine-1-carbonyl)hexahydro-2H-pyrido[4,3-b][1,4]oxazin-3(4H)-one] | 1100
O=C1CO[C@H]2CCN(C(=O)N3CCC(C(OCC(F)(F)F)c4ccc(F)cc4)CC3)C[C@H]2N1 (stereo partly drawn) [Example 50, (4aR,8aS)-6-(4-((4-Fluorophenyl)(2,2,2-trifluoroethoxy)methyl)piperidine-1-carbonyl)hexahydro-2H-pyrido[4,3-b][1,4]oxazin-3(4H)-one] | 9
Cc1noc(CC(c2ccc(F)cc2)C2CCN(C(=O)N3CC[C@@H]4OCC(=O)N[C@@H]4C3)CC2)n1 (stereo partly drawn) [Example 51, (4aR,8aS)-6-(4-(1-(4-Fluorophenyl)-2-(3-methyl-1,2,4-oxadiazol-5-yl)ethyl)piperidine-1-carbonyl)hexahydro-2H-pyrido[4,3-b][1,4]oxazin-3(4H)-one] | 63
O=C1CO[C@H]2CCN(C(=O)N3CCC(C4(c5ccc(C(F)(F)F)cc5)CC4)CC3)C[C@H]2N1 [Example 52, (4aR,8aS)-6-(4-(1-(4-(Trifluoromethyl)phenyl)cyclopropyl)piperidine-1-carbonyl)hexahydro-2H-pyrido[4,3-b][1,4]oxazin-3(4H)-one] | 21
